Experimental data taken from patent publication US10017791B2, “Coryneform bacterium transformant and process for producing 4-hydroxybenzoic acid or salt thereof using the same” (GREEN PHENOL DEVELOPMENT CO., LTD., priority 2014, dated 2018).

How the values were obtained:
[1] = target: chorismate-pyruvate lyase of Azotobacter vinelandii (Azotobacter vinelandii, UniProt C1DK46); assay: Product inhibition of chorismate-pyruvate lyase activity by 4-HBA (IC50); type: biochemical; conditions: cell lysate supernatant of strain HBA19
chorismate-pyruvate lyase of Azotobacter vinelandii, sequence (C1DK46 1-183): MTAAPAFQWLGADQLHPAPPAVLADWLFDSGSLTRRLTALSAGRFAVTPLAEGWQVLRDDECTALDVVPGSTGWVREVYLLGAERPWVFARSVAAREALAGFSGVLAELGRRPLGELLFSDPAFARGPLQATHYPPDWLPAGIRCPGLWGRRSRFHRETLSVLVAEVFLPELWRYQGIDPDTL
Method: (§1) Each kind of the bacterial cells cultured and proliferated as above was collected by centrifugation (8,000 rpm, 4° C., 10 minutes). After disrupting the bacterial cells by sonication, centrifugation (15,000 rpm, 4° C., 20 minutes) was performed. Using the supernatant of the cell lysate as a crude enzyme liquid, chorismate-pyruvate lyase activity was determined by the following method. The crude enzyme liquid, 50 mM Tris-HCl (pH 7.5), 0.5 mM of chorismate Ba salt, 0.2 mM of NADH, 0.2 M of NaCl and 5 units of lactate dehydrogenase were mixed, the reaction was allowed to proceed at 33° C., and the decrease in absorbance of NADH at 340 nm was monitored to analyze the initial rate of the reaction. From the initial rate of the reaction and the protein concentration, the specific activity was calculated (the amount of the enzyme that produces 1 μmol of 4-HBA per minute was defined as 1 unit). (After the reaction mixture was filtered, the resulting 4-HBA was subjected to HPLC for direct detection of the peak of 4-HBA (Cosmosil C18 ARII made by Nacalai Tesque, mobile phase: 20% methanol and 0.07% perchloric acid) to separately confirm that the two assay methods were similar in quantitative performance.)
(§2) Using the supernatants of the cell lysates of the strains of HBA-1 to HBA-21 prepared in Example 2, inhibition by the product, 4-HBA, was examined.

[2] = target: chorismate-pyruvate lyase of Citrobacter koseri (Citrobacter koseri, UniProt A8AN89); assay: as above; type: biochemical; conditions: cell lysate supernatant of strain HBA14
chorismate-pyruvate lyase of Citrobacter koseri, sequence (A8AN89 whole entry, looked up): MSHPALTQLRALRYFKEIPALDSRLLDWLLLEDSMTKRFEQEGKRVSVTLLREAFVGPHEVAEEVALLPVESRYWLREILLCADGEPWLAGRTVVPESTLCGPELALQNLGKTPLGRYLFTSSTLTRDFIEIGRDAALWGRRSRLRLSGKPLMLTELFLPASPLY
Method: as §1, §2

[3] = target: T1, chorismate-pyruvate lyase of Cronobacter sakazakii (Cronobacter sakazakii, UniProt A7MPN9); assay: as above; type: biochemical; conditions: cell lysate supernatant of strain HBA12
T1 construct: 5′-[…]-3′
T1 sequence (A7MPN9 whole entry, looked up): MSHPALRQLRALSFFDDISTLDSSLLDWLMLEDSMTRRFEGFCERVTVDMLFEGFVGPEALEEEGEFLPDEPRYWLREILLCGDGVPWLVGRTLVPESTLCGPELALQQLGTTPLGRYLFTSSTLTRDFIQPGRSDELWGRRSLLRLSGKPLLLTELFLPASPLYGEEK
Method: as §1, §2

[4] = target: chorismate-pyruvate lyase of Cupriavidus taiwanensis (Cupriavidus taiwanensis, UniProt B3R6T5); assay: as above; type: biochemical
chorismate-pyruvate lyase of Cupriavidus taiwanensis, sequence (B3R6T5 entry or part of it): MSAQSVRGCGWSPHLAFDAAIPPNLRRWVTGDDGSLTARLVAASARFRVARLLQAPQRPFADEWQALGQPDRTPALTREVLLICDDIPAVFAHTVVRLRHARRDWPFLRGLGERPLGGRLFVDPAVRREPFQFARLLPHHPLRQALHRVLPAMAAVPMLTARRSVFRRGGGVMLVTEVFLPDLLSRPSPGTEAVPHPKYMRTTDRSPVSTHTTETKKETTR
Method: as §1, §2

[5] = target: chorismate-pyruvate lyase of Enterobacter aerogenes (Klebsiella aerogenes, UniProt A0A0H3FPH2); assay: as above; type: biochemical; conditions: cell lysate supernatant of strain HBA15
chorismate-pyruvate lyase of Enterobacter aerogenes, sequence (A0A0H3FPH2 entry or part of it): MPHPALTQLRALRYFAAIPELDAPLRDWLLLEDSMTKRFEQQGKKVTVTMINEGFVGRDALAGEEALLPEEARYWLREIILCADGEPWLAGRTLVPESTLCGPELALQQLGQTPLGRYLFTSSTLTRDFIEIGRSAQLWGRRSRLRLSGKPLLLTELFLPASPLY
Method: as §1, §2

[6] = target: chorismate-pyruvate lyase of Enterobacter cloacae (Enterobacter cloacae, UniProt A0A0H3CH24); assay: as above; type: biochemical; conditions: cell lysate supernatant of strain HBA16
chorismate-pyruvate lyase of Enterobacter cloacae, sequence (A0A0H3CH24 entry or part of it): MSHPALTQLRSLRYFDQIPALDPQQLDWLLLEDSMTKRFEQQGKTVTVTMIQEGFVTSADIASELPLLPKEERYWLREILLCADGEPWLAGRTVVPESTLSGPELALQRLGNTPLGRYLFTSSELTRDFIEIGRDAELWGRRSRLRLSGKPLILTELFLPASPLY
Method: as §1, §2

[7] = target: T2, chorismate-pyruvate lyase of Escherichia coli (Escherichia coli, UniProt P26602); assay: as above; type: biochemical; conditions: cell lysate supernatant of strain HBA8
T2 construct: made in house; host or cells: Corynebacterium glutamicum R (crude cell-lysate supernatant)
T2 sequence (P26602 whole entry): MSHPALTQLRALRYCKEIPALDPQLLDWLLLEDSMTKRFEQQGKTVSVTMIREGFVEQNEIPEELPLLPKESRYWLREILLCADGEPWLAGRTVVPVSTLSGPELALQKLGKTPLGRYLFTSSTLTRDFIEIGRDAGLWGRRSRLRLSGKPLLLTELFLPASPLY
Method: as §1, §2

[8] = target: chorismate-pyruvate lyase of Escherichia fergusonii (Escherichia fergusonii, UniProt B7LL11); assay: as above; type: biochemical; conditions: cell lysate supernatant of strain HBA9
chorismate-pyruvate lyase of Escherichia fergusonii, sequence (B7LL11 entry or part of it): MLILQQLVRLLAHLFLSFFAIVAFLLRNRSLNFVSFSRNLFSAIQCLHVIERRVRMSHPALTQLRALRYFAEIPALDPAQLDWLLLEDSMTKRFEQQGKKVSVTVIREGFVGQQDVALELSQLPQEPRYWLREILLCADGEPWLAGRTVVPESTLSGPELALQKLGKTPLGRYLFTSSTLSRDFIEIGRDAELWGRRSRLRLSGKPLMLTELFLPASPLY
Method: as §1, §2

[9] = target: chorismate-pyruvate lyase of Morganella morganii (Morganella morganii, UniProt M1SIE1); assay: as above; type: biochemical; conditions: cell lysate supernatant of strain HBA18
chorismate-pyruvate lyase of Morganella morganii, sequence (M1SIE1 entry or part of it): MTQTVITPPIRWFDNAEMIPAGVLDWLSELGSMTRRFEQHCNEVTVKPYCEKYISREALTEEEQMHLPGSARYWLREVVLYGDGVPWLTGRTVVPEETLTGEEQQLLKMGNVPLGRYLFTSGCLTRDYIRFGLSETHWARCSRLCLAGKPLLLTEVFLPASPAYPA
Method: as §1, §2

[10] = target: chorismate-pyruvate lyase of Pantoea ananatis (Pantoea ananatis, UniProt A0ACE3JNM4); assay: as above; type: biochemical; conditions: cell lysate supernatant of strain HBA1
chorismate-pyruvate lyase of Pantoea ananatis, sequence (A0ACE3JNM4 1-170): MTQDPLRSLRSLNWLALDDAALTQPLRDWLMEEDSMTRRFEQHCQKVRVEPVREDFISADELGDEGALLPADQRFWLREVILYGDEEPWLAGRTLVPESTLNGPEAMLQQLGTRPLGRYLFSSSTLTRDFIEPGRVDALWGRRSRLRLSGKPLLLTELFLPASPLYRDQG
Method: as §1, §2

[11] = target: chorismate-pyruvate lyase of Providencia alcalifaciens (Providencia alcalifaciens, UniProt B6XE56); assay: as above; type: biochemical; conditions: cell lysate supernatant of strain HBA6
chorismate-pyruvate lyase of Providencia alcalifaciens, sequence (B6XE56 1-167): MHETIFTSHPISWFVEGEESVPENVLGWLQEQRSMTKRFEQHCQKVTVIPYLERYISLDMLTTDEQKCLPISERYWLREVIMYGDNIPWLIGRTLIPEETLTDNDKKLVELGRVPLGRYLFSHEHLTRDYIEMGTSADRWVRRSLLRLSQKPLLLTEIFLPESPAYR
Method: as §1, §2

[12] = target: chorismate-pyruvate lyase of Providencia burhodogranariea (Providencia burhodogranariea, UniProt K8VY45); assay: as above; type: biochemical; conditions: cell lysate supernatant of strain HBA7
chorismate-pyruvate lyase of Providencia burhodogranariea, sequence (K8VY45 entry or part of it): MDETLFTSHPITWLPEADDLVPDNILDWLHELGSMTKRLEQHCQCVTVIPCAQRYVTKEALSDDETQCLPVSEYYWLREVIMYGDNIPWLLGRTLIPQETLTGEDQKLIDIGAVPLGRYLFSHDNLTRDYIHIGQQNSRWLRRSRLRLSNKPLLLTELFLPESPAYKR
Method: as §1, §2

[13] = target: chorismate-pyruvate lyase of Providencia rustigianii (Providencia rustigianii, UniProt D1P752); assay: as above; type: biochemical; conditions: cell lysate supernatant of strain HBA2
chorismate-pyruvate lyase of Providencia rustigianii, sequence (D1P752 1-167): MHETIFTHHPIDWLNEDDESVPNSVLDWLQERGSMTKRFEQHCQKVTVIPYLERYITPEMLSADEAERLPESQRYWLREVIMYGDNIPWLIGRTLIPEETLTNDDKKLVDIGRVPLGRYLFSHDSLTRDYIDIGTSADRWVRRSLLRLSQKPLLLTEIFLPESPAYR
Method: as §1, §2

[14] = target: chorismate-pyruvate lyase of Providencia sneebia (Providencia sneebia, UniProt K8VZZ4); assay: as above; type: biochemical; conditions: cell lysate supernatant of strain HBA4
chorismate-pyruvate lyase of Providencia sneebia, sequence (K8VZZ4 1-168): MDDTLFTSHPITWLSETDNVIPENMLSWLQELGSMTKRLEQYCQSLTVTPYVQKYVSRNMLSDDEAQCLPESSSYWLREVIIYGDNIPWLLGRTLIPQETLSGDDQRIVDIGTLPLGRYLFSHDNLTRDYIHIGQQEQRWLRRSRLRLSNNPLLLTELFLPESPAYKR
Method: as §1, §2

[15] = target: chorismate-pyruvate lyase of Providencia stuartii (Providencia stuartii, UniProt A0A1S1HSD5); assay: as above; type: biochemical; conditions: cell lysate supernatant of strain HBA3
chorismate-pyruvate lyase of Providencia stuartii, sequence (A0A1S1HSD5 entry or part of it): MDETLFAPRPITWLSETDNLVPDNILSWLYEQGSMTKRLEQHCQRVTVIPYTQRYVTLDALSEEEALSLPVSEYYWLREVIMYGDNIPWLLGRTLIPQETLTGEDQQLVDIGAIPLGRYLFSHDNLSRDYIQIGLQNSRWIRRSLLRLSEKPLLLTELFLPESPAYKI
Method: as §1, §2

[16] = target: chorismate-pyruvate lyase of Pseudoalteromonas haloplanktis (Pseudoalteromonas haloplanktis, UniProt A0A9W4VR20, L6V); assay: as above; type: biochemical
chorismate-pyruvate lyase of Pseudoalteromonas haloplanktis, sequence (A0A9W4VR20 entry or part of it L6V): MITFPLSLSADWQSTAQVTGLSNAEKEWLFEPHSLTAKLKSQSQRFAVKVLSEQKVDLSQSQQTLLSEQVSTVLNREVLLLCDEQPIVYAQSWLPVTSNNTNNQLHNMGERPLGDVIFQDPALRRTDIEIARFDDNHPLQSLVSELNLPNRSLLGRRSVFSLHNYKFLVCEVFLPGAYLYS
Method: as §1, §2

[17] = target: chorismate-pyruvate lyase of Pseudoalteromonas piscicida (Pseudoalteromonas piscicida, UniProt A0ABN5CDX6, M1V); assay: as above; type: biochemical; conditions: cell lysate supernatant of strain HBA10
chorismate-pyruvate lyase of Pseudoalteromonas piscicida, sequence (A0ABN5CDX6 1-160, stated change not applied): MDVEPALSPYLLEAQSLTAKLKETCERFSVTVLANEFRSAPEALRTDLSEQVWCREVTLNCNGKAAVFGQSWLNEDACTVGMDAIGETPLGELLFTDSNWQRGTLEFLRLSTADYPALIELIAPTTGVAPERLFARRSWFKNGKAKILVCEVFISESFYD
Method: as §1, §2

[18] = target: chorismate-pyruvate lyase of Pseudomonas putida (Pseudomonas putida, UniProt Q88C66); assay: as above; type: biochemical; conditions: cell lysate supernatant of strain HBA17
chorismate-pyruvate lyase of Pseudomonas putida, sequence (Q88C66 whole entry): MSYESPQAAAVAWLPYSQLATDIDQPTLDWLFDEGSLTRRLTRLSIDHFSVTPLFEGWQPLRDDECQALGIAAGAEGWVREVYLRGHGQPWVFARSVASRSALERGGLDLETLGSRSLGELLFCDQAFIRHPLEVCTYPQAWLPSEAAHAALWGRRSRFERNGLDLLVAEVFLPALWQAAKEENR
Method: as §1, §2

[19] = target: chorismate-pyruvate lyase of Shewanella putrefaciens (Shewanella putrefaciens, UniProt A0ABX8XB71); assay: as above; type: biochemical; conditions: cell lysate supernatant of strain HBA20
chorismate-pyruvate lyase of Shewanella putrefaciens, sequence (A0ABX8XB71 entry or part of it): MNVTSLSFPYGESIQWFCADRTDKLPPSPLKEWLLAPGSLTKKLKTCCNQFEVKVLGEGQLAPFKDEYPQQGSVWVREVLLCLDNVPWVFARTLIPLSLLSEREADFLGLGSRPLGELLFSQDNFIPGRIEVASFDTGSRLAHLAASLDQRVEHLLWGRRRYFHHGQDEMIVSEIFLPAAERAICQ
Method: as §1, §2

Escherichia coli JM109 = assay: Growth inhibition test in aerobic culture (influence of 4-HBA); type: cell-based; conditions: LB liquid medium, 37° C., OD610
Method: (§3) A growth inhibition test in aerobic culture was performed to examine the influence of 4-HBA on Corynebacterium glutamicum, Escherichia coli, Pseudomonas putida, and Rhodobacter sphaeroides. Pseudomonas putida S12, which was used for the test, is reported to be a solvent-resistant strain to produce 4-HBA via tyrosine.
Escherichia coli JM109 was applied to LB agar medium (1% polypeptone, 0.5% yeast extract, 0.5% NaCl and 1.5% agar) and was left stand in the dark at 37° C. for 15 hours.
An inoculation loop of the Escherichia coli JM109 grown on a plate as above was applied to LB liquid medium (1% polypeptone, 0.5% yeast extract, and 0.5% NaCl), and aerobic culture was performed with shaking at 37° C. for 13 hours.
The Escherichia coli JM109 grown in the above conditions was inoculated into 100 mL of LB liquid medium in such a way that the initial bacterial cell concentration would be OD=0.05, 4-HBA was added at the same time in such a way that the final concentration would be 0, 100, or 200 mM, and aerobic culture was performed with shaking at 37° C. The growth of the bacterial cells was determined by absorbance measurement at OD610.

Pseudomonas putida S12 = assay: as above; type: cell-based; conditions: 200 mM 4-HBA, LB liquid medium, 30° C., OD610
Method: as §3
Pseudomonas putida S12 was applied to LB agar medium (1% polypeptone, 0.5% yeast extract, 0.5% NaCl and 1.5% agar) and was left stand in the dark at 30° C. for 15 hours.
An inoculation loop of the Pseudomonas putida S12 grown on a plate as above was applied to LB liquid medium (1% polypeptone, 0.5% yeast extract, and 0.5% NaCl), and aerobic culture was performed with shaking at 30° C. for 13 hours.
The Pseudomonas putida S12 grown in the above conditions was inoculated into 100 mL of LB liquid medium in such a way that the initial bacterial cell concentration would be OD610=0.05, 4-HBA was added at the same time in such a way that the final concentration would be 0, 100, 200, or 300 mM, and aerobic culture was performed with shaking at 30° C. The growth of the bacterial cells was determined by absorbance measurement at OD610.

Rhodobacter sphaeroides = assay: as above; type: cell-based; conditions: LB liquid medium, 30° C., OD610
Method: as §3
Rhodobacter sphaeroides was applied to LB agar medium (1% polypeptone, 0.5% yeast extract, 0.5% NaCl and 1.5% agar) and was left stand in the dark at 30° C. for 20 hours.
An inoculation loop of the Rhodobacter sphaeroides grown on a plate as above was applied to LB liquid medium (1% polypeptone, 0.5% yeast extract, and 0.5% NaCl), and aerobic culture was performed with shaking at 30° C. for 13 hours.
The Rhodobacter sphaeroides grown in the above conditions was inoculated into 100 mL of LB liquid medium in such a way that the initial bacterial cell concentration would be OD=0.1, 4-HBA was added at the same time in such a way that the final concentration would be 0, 100, or 200 mM, and aerobic culture was performed with shaking at 30° C. The growth of the bacterial cells was determined by absorbance measurement at OD610.

[20] = test system: Corynebacterium glutamicum R; assay: as above; type: cell-based; conditions: for Growth of Corynebacterium glutamicum: aerobic, A liquid medium, 33° C., OD610
Method: as §3
Corynebacterium glutamicum was applied to A agar medium (2 g of (NH2)2CO, 7 g of (NH4)2SO4, 0.5 g of KH2PO4, 0.5 g of K2HPO4, 0.5 g of MgSO4.7H2O, 1 mL of 0.06% (w/v) Fe2SO4.7H2O+0.042% (w/v) MnSO4.2H2O, 1 mL of 0.02% (w/v) biotin solution, 2 mL of 0.01% (w/v) thiamin solution, 2 g of yeast extract, 7 g of vitamin assay casamino acid, 40 g of glucose, and 15 g of agar were suspended in 1 L of distilled water) and was left stand in the dark at 33° C. for 15 hours.
An inoculation loop of Corynebacterium glutamicum R strain grown on a plate as above was inoculated into a test tube containing 10 mL of A liquid medium (2 g of (NH2)2CO, 7 g of (NH4)2SO4, 0.5 g of KH2PO4, 0.5 g of K2HPO4, 0.5 g of MgSO4.7H2O, 1 mL of 0.06% (w/v) Fe2SO4.7H2O+0.042% (w/v) MnSO4.2H2O, 1 mL of 0.02% (w/v) biotin solution, 2 mL of 0.01% (w/v) thiamin solution, 2 g of yeast extract, 7 g of vitamin assay casamino acid, and 40 g of glucose were suspended in 1 L of distilled water) and was aerobically cultured with shaking at 33° C. for 15 hours.
The Corynebacterium glutamicum R strain grown in the above conditions was inoculated into 10 mL of A liquid medium in such a way that the initial bacterial cell concentration would be OD610=0.05, 4-HBA was added at the same time in such a way that the final concentration would be 0, 100, 200, 250, or 300 mM, and aerobic culture was performed with shaking at 33° C. The growth of the bacterial cells was determined by absorbance measurement at OD610.

With `O=C(O)c1ccc(O)cc1` [Strain 4-HBA, 4-hydroxybenzoic acid] the IC50 [1] was 69 µM, the IC50 [2] was 83 µM and the IC50 [3] was 76 µM. The IC50 [4] was 149 µM, the IC50 [5] was 73 µM and the IC50 [6] was 105 µM. It also gave an IC50 [7] of 67 µM, an IC50 [8] of 79 µM and an IC50 [9] of 61 µM. For the same compound, the IC50 [10] was 69 µM, the IC50 [11] was 301 µM and the IC50 [12] was 401 µM. For the same compound, the IC50 [13] was 364 µM, the IC50 [14] was 338 µM and the IC50 [15] was 368 µM. For the same compound, the IC50 [16] was 78 µM, the IC50 [17] was 73 µM and the IC50 [18] was 68 µM. The IC50 [19] was 130 µM, the “Growth of Escherichia coli” value (Escherichia coli JM109; 100 mM 4-HBA) was “significantly affected” and the “Growth of Escherichia coli” value (Escherichia coli JM109; 200 mM 4-HBA) was “completely inhibited”. The “Growth of Pseudomonas putida S12” value (Pseudomonas putida S12) was “completely inhibited”, the “Growth of Rhodobacter sphaeroides” value (Rhodobacter sphaeroides; 100 mM 4-HBA) was “completely inhibited” and the “Growth of Rhodobacter sphaeroides” value (Rhodobacter sphaeroides; 200 mM 4-HBA) was “completely inhibited”. The “Growth of Corynebacterium glutamicum” value ([20]; 200 mM 4-HBA) was “able to grow”, the “Growth, % of the OD610 of wild strain” value ([20]; 250 mM 4-HBA, 28 hours after the start of the culture, same extent as in the presence of 200 mM 4-HBA, data not shown) was “about 65%” and the “Growth of Corynebacterium glutamicum” value ([20]; 250 mM 4-HBA) was “able to grow”.
